Measured values reported in patent US20220348564A1, “PHENYL-[1,3]DIOXOLO[4,5-C]PYRIDINYL-PHENYL-, PHENYL-[1,3]DIOXOLO[4,5-C]PYRIDINYL-HETEROARYL-, OR PHENYL-(1,3)DIOXO[4,5-C]PYRIDINYL-PIPERIDINYL-METHYL-OXETANYLMETHYL-1H-BENZO[D]IMIDAZOLE-CARBOXYLIC ACID DERIVATIVES AND METHODS OF USING SAME” (Eccogene (Shanghai) Co., Ltd., priority 2021, published 2022).
Where two headings read alike, the source gives them in different places.

Legend:
human GLP-1 = biological target: T1, human GLP-1 (Homo sapiens, UniProt P43220); assay: h-GLP-1 activity assay (Cisbio cAMP Gs dynamic kit, HTRF); assay type: cell-based; conditions: HEK293 cells with stable expression of human GLP-1, relative EC50, 10 nM human GLP-1 = 100% response
T1 construct: expressed in transfected cells
Description: Human GLP-1 agonizing activity was detected in HEK293 cells with stable expression of human GLP-1 by Cisbio cAMP Gs dynamic kit (Catalog #62AM4PEC) according to manufacturer's protocol. Briefly, cells were collected and resuspended in assay buffer containing 0.1% BSA and 0.5 mM of IBMX at concentration to 2.5×10^5 cells/mL. Two μL 5× compound solution and 8 μL cell suspension were added to each well of low-volume 384 white assay plate. After 30 min incubation at 37° C., 5 μL cAMP-d2 working solution and 5 μL anti-cAMP antibody-cryptate were added to each well, and incubate at room temperature for 1 hr. Series dilution of cAMP was used as standard. Human GLP-1 (7-37) was used as positive control and 10 nM human GLP-1 was set as 100% response. HTRF signals were read at 665 and 615 nm with EnVision plate reader and calculated cAMP concentration by intrapolation to the standard curve. The EC50 value of the tested compounds was calculated by fitting the dose response curve using a 4-parameter non-linear regression routine and relative EC50 was presented in Table S.

[1] = Liver microsome stability, rat; assay type: in vitro ADME; conditions: rat liver microsomes, NADPH, 37° C.
Description: (§1) Compounds of the present application was incubated with human or rat liver microsomes in the presence of NADPH at 37° C. The concentration of compound at pre-incubation and after 30 min incubation was quantified by LC-MS. The percentage of remaining compound was then calculated and indicative of microsome stability of each compound.

[2] = Pharmacokinetics in fasted SD rats (PO and IV); assay type: in vivo; conditions: rat, plasma; for clearance: read-out: IV parameters CL; for bioavailability: read-out: PO parameters F (%)
Description: Compounds of the present application were formulated in 0.50% MC, and administered via oral gavage (PO) at the dosages of 5 or 10 mg per kilogram body weight, or formulated in 5% DMSO:15% Solutol 80% (SBECD), and administered via intravenous injection (IV) at the dosages of 1 mg per kilogram body weight, in fasted SD rats. Plasma samples were collected at 0.25, 0.5, 1, 2, 4, 6, 8, and 24 hours post dosing (PO); and were collected at 0.083, 0.25, 0.5, 1, 2, 4, 6, 8, and 24 hours post dosing (IV). Compound concentration was determined by LC-MS and pharmacokinetics parameters were calculated by WinNonlin 8.2 using Non-Compartmental Analysis model.

[3] = Liver microsome stability, human; assay type: in vitro ADME; conditions: human liver microsomes, NADPH, 37° C.
Description: as §1

[4] = IV 1 mg/kg, read-out: IV parameters AUC0-inf
[5] = PO 5 mg/kg, 0.50% MC, read-out: PO parameters AUC0-inf

T1 sequence (P43220 24-463): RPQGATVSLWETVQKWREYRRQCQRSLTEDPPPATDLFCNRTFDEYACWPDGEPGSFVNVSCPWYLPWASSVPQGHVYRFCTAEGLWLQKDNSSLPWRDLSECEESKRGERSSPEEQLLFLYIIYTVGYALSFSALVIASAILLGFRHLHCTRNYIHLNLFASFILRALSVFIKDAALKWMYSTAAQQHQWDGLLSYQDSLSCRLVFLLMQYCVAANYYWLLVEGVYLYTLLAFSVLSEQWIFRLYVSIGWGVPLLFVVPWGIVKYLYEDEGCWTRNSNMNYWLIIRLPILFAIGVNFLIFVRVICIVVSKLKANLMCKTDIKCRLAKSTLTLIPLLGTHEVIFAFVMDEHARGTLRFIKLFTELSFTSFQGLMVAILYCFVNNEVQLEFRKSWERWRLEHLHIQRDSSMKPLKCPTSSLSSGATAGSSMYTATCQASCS

Row | Compound | EC50 (human GLP-1) | Rat (% remaining @ 30 min) [1] | AUC(0-inf) [2, 4] | clearance ([2]; IV 1 mg/kg) | AUC(0-inf) [2, 5] | bioavailability ([2]; PO 5 mg/kg) | Human (% remaining @ 30 min) [3]
1 | C[C@@]1(c2ccc(Cl)cc2F)Oc2cccc(C3=CC[C@@H](Cc4nc5ccc(C(=O)O)cc5n4C[C@@H]4CCO4)OC3)c2O1 (single isomer, unassigned) [Compound 100] | < 20 nM | >75% | 1760 ng·h/mL | 9.7 mL/min/kg | 3190 ng·h/mL | 36.3% | >75%
2 | C[C@]1(c2ccc(Cl)cn2)Oc2cccc(C3=CC[C@H](Cc4nc5c(F)cc(C(=O)O)cc5n4C[C@@H]4CCO4)OC3)c2O1 (single isomer, unassigned) [Compound 118] | < 20 nM | >75% |  |  |  |  | >75%
3 | C[C@]1(c2ccc(Cl)cc2F)Oc2cccc(C3=CC[C@@H](Cc4nc5ccc(C(=O)O)nc5n4C[C@@H]4CCO4)OC3)c2O1 (single isomer, unassigned) [Compound 108] | < 20 nM | >75% |  |  |  |  | >75%
4 | C[C@@]1(c2ccc(Cl)cn2)Oc2cccc(C3CCN(Cc4nc5ccc(C(=O)O)cc5n4C[C@@H]4CCO4)CC3(F)F)c2O1 (single isomer, unassigned) [Compound 76] | < 20 nM |  |  |  |  |  | 
5 | CCC1(c2ccc(Cl)cc2F)Oc2cccc(-c3ccc(Cc4nc5ccc(C(=O)O)cc5n4C[C@@H]4CCO4)cc3)c2O1 (mixture of isomers) [Compound 7, 2-(4-(2-(4-chloro-2-fluorophenyl)-2-ethylbenzo[d][1,3]dioxol-4-yl)benzyl)-1-(((S)-oxetan-2-yl)methyl)-1H-benzo[d]imidazole-6-carboxylic acid] | > 100 nM |  |  |  |  |  | 
6 | O=C(O)c1ccc2nc(CCN3CC(c4cccc(OCc5ccc(Cl)cc5F)n4)C3)n(C[C@@H]3CCO3)c2c1 [Compound 82, (S)-2-(2-(3-(6-((4-chloro-2-fluorobenzyl)oxy)pyridin-2-yl)azetidin-1-yl)ethyl)-1-(oxetan-2-ylmethyl)-1H-benzo[d]imidazole-6-carboxylic acid] | 20 to 100 nM |  |  |  |  |  | 

The remaining lines, values ahead:

Row | EC50 (human GLP-1) | Rat (% remaining @ 30 min) [1] | AUC(0-inf) [2, 4] | clearance ([2]; IV 1 mg/kg) | AUC(0-inf) [2, 5] | bioavailability ([2]; PO 5 mg/kg) | Human (% remaining @ 30 min) [3] | Compound
7 | < 20 nM |  | 588 ng·h/mL | 28.8 mL/min/kg | 526 ng·h/mL | 21.7% |  | O=C(O)c1ccc2nc(C[C@H]3CC[C@H](c4cccc(OCc5ccc(Cl)cc5F)n4)CO3)n(Cc3cncs3)c2c1 (single isomer, unassigned) [Compound 28]
8 | < 20 nM | >75% |  |  |  |  | >75% | C[C@]1(c2ccc(Cl)cc2F)Oc2cccc(C3=CC[C@@H](Cc4nc5c(F)cc(C(=O)O)cc5n4C[C@@H]4CCO4)OC3)c2O1 (single isomer, unassigned) [Compound 110]
9 | < 20 nM | >75% |  |  |  |  | >75% | C[C@@]1(c2ccc(Cl)cn2)Oc2cccc(C3=CC[C@H](Cc4nc5ccc(C(=O)O)cc5n4C[C@@H]4CCO4)OC3)c2O1 (single isomer, unassigned) [Compound 78]
10 | < 20 nM |  | 3380 ng·h/mL | 5.5 mL/min/kg | 4410 ng·h/mL | 26.1% |  | C[C@]1(c2ccc(Cl)cc2F)Oc2cccc(-c3ccc(Cc4nc5ccc(C(=O)O)cc5n4C[C@@H]4CCO4)cc3)c2O1 (single isomer, unassigned) [Compound 19]
11 | < 20 nM |  |  |  |  |  |  | C[C@@]1(c2ccc(C(F)(F)F)cn2)Oc2cccc(C3=CCC(Cc4nc5ccc(C(=O)O)cc5n4C[C@@H]4CCO4)OC3)c2O1 (single isomer, unassigned) [Compound 121]
